This note sets out measurements from ChEMBL document CHEMBL1782053, “Differences in CYP3A4 catalyzed bioactivation of 5-aminooxindole and 5-aminobenzsultam scaffolds in proline-rich tyrosine kinase 2 (PYK2) inhibitors: retrospective analysis by CYP3A4 molecular docking, quantum chemical calculations and glutathione adduct detection using linear ion trap/orbitrap …” (Bioorg Med Chem Lett, 2009).

By pKa is commonly meant the negative logarithm of the acid dissociation constant. Low readings indicate a group that gives up its proton readily, high ones a group that holds its proton tightly.

Series [1] can be described thus: Dissociation constant, pKa of the compound. The format is physicochemical.
In series [2] the test system is Liver microsomes. The experiment in a line: Metabolic stability in human liver microsome assessed as level of GSH adduct at 1 to 10 uM by ion trap/orbitrap MS analysis. It is filed as ADME. Background: Liver microsomes are a subcellular fraction often used to study metabolism.
Series [3] relates to Liver microsomes. The series is described as follows: Metabolic stability in human liver microsome assessed as level of GSH adduct at 20 uM by ion trap/orbitrap MS analysis. The format is ADME.

`CN(C)[C@@H]1CCC[C@H]1Nc1nc(Nc2ccc3c(c2)CC(=O)N3)ncc1C(F)(F)F`: the pKa in series [1] came to 13.7.
Take `CN(C)[C@@H]1CCC[C@H]1Nc1nc(Nc2ccc3c(c2)CS(=O)(=O)N3)ncc1C(F)(F)F`: the Stability result in series [2] is “Stable”; in series [3], “Unstable”. For the same compound, in series [1], the pKa was 9.26.
